Measurements from patent US8889411B2, “Modulation of stem and progenitor cell differentiation, assays, and uses thereof” (Anthrogenesis Corporation, priority 2002, dated 2014).

Columns and labels:
[1] = test system: Murine Sca+Lin− hematopoietic progenitor cells; assay: Generation of murine dendritic cells from bone marrow Sca+Lin− progenitors, cell surface phenotype; format: cell-based, mouse (C57BL/6)
Description: Mouse bone marrow from inbred C57BL/6 mice was obtained from Clonetics. Hematopoietic Sca+Lin− progenitors were enriched using SpinSep murine progenitor enrichment cocktail (StemCell Technologies) and cultured in Iscove's MDM with BIT 95000 (StemCell Technologies) in the presence of murine growth factors SCF, Flt3L, GM-CSF and M-CSF for 9 days, to promote expansion of Sca+ cells and a DC precursor phenotype and then in the presence of GM-CSF and TNF-α for 3 additional days to drive the cells to an immature DC phenotype. Enriched Sca+Lin− cells were cultured in the presence of DMSO (0.1%), ACTIMID™ at 10 μM or all-trans retinoic acid (ATRA) (ICN Biomedicals) at 10 μM from day 0. Compounds were added to cells at day 0 and day 9.
Analysis of Murine cell surface phenotype: Murine cells were processed for double staining (14 min at RT) at day 9 and day 12; using FITC and PE conjugated mAbs. Antibodies used were from BD Pharmingen: Sea (PE), CD11b (FITC), Gr-1 (FITC), CD86 (PE), CD14 (PE), CD80 (PE), I-A^b (PE), CD40 (PE) and CD32.1/16.1 (FITC) from Miltenyi. Fluorescence analysis was performed on a FACScan flow cytometer (Coulter) after acquisition of 10,000 events.

[2] = test system: allogenic CD3+ T cells stimulated by CD34+-derived DC cells; assay: T cell proliferation assay (Mixed Leucocyte Reaction); format: cell-based, human; conditions: compared to DMSO control
Experimental: T cell proliferation assay: After 13 days of culture, CD34^+-derived DC cells were collected, and after treatment with mitomycin C (50 μg/ml, Sigma), used as stimulators cells for allogenic adult CD3^+ T cells purified from peripheral blood mononuclear cells (PBMCs) from healthy volunteers. CD3^+ T responder cells were used at a concentration of 5×10^4 cells/well. Stimulators cells were added in graded doses to the T cells in black 96-well flat bottom, clear bottom tissue culture plates for chemiluminescence detection. Cultures were performed in RPMI 1640 medium supplemented with 10% heat-inactivated FBS, glutamine and Penicillin-streptomycin. After 6 days of culture, cell proliferation was measured with the BrdU chemiluminescence assay (Roche, Nutley N.J.), following manufacturer instructions. Results are presented as the mean±SD obtained from triplicate cultures.

[3] = test system: Human Cord Blood MNC Cells; assay: FACS analysis of cryopreserved and thawed cord blood MNCs after 1 week of culture with cytokines; format: cell-based; conditions: 5 μg in 1.7 μl DMSO, average +/− SD of three wells
Experimental: Cord blood MNCs that had been cryopreserved and thawed using standard methods were isolated by standard Ficoll separation method and cultured in 24 well-plate at 0.5×10^6 cells/ml in 20% FCS-IMDM with cytokines (1L6, KL and G-CSF 10 ng/ml each) in triplicates. The experimental groups were None (cytokines only), DMSO (1.7 μl), ACTIMID™ (5.0 μg in 1.7 μl DMSO), REVIMID™ (5 μg in 1.7 μl DMSO). The cultured cells were harvested and analyzed by FACS staining after 1 week of culture. The data are expressed as an average +/− SD from three independent wells.

[4] = test system: adult SJL/L mice with bone marrow ablation by lethal irradiation; assay: Transplantation of ACTIMID-pretreated nucleated cells into lethally irradiated mice; format: in vivo, mouse; conditions: for % Starting Body Weight at 50 days: irradiated mice
Experimental: Placental nucleated cells (PLNC), umbilical cord blood nucleated cells (UCBNC) and bone marrow cells (BMNC) were obtained from human donors. PLNC and UCBNC were obtained from placenta and umbilical cord using methods described in Section 5.4 above.
The cells were pretreated by incubation in DMEM supplemented with 2% human CB serum with 10 µg/ml ACTIMID™ for 24 hours. Cells were then washed, resuspended in autologous plasma, and administered intravenously to recipient adult SJL/L mice (Jackson Laboratories) that had bone marrow ablation produced by lethal irradiation (900cGy) according to standard methods. Such irradiation is better than 90% lethal by 50 days post-irradiation (Ende et al., 2001, Life Sciences 69(13):1531-1539; Chen and Ende, 2000, J. Med. 31: 21-30; Ende et al., 2000, Life Sci. 67(1):53-9; Ende and Chen, 2000, Am. J. Clin. Pathol. 114: 89).

[5] = 10 μM, added at day 0 and day 9

SMILES: Nc1cccc2c1C(=O)N(C1CCC(=O)NC1=O)C2=O (centres unmarked) [ACTIMID™, 4-(Amino)-2-(2,6-dioxo(3-piperidyl))-isoindoline-1,3-dione]
- cell surface marker expression by day 9 ([1]; 10 μM from day 0): no significant effect
- CD11b expression by day 12 [1, 5]: upregulation
- CD86 and bright I-A^b expression by day 12 [1, 5]: downregulation
- expression of CD40 and CD80 ([1]; 10 μM, not shown): no effects
- capacity to stimulate the proliferation of T-cells ([2]; compound from day 1 to day 12): reduced capacity
- capacity to stimulate the proliferation of T-cells ([2]; compound from day 6 to day 12): comparable
- CD34(%) [3]: 3.31 +/− 0.64%
- CD34+CD38−(%) [3]: 1.70 +/− 0.22%
- CXCR4+CD45+(%) [3]: 2.9 +/− 0.5%
- CXCR4+CD45−(%) [3]: 4.27 +/− 0.23%
- Total CD34+ cells [3]: 7800 +/− 2600
- Total cells (1 × 10^6) [3]: 0.223 +/− 0.06 1 × 10^6
- survival of transplanted PLNC, UCBNC and BMNC ([4]; ACTIMID pre-treatment of cells): increases the survival
- # of Animals Dead at 50 days ([4]; PLNC 5 × 10^6 + ACTIMID pre-treatment (10 g/ml, 24 hours) intravenous, 4 animals irradiated (900cGy)): 0
- % Starting Body Weight at 50 days ([4]; PLNC 5 × 10^6 + ACTIMID pre-treatment intravenous): 102%
- # of Animals Dead at 50 days ([4]; UCBNC 10 × 10^6 + ACTIMID pre-treatment intravenous, 3 animals irradiated (900cGy)): 0
- % Starting Body Weight at 50 days ([4]; UCBNC 10 × 10^6 + ACTIMID pre-treatment intravenous): 84%
